Measured values published in patent US11612643B2, “Col14A1-derived tumor antigen polypeptide and use thereof” (Genoimmune Therapeutics Co., Ltd., priority 2016, dated 2023).

test system: CD8+ T cells; experiment: ELISPOTs detection of IFN-gamma secretion by peptide-specific CD8+ T cells; assay type: cell-based, human; settings: ELISPOTs
Text: In this example, a ELISPOTs detection kit (Cat. No.: 3420-4AST-10, MABTECH) was used to verify the activation of an immune response of CD8+ T cells by the peptides of the present invention.
Principle of the ELISPOTs detection method is as follows: CD8+ T cells can specifically recognize the complex of HLA-A0201 and a peptide. The population of T cells recognizing the complex of the peptide and HLA-A0201 is varying, depending on the peptide sequence. Since T2 cells express HLA-A0201, CD8+ T cells can specifically recognize the T2 cells loaded with a peptide. After specific recognition of the complex of HLA-A0201 and the peptide, peptide-specific CD8+ T cells can be activated again to secrete IFN-gamma interferon. The IFN-gamma interferon secreted by the activated CD8+ T cells can be captured by antibodies on the ELISPOTs plate. Finally, the enzyme-conjugated antibody that recognizes IFN-gamma can degrade the substrate through the enzyme conjugated thereto and develop color, eventually producing spots. The number of spots represents the number of cells that are activated to secrete IFN-gamma interferon.
The cultured cells from Example 3 were added, along with T2 cells loaded with the mutant peptide […] of the present invention and the wild-type peptide […], respectively, into ELISPOTs plates, and cultured for 20 h, and then a ELISPOTs detection was performed (see the kit instruction). Finally, the spots produced by the ELISPOTs detection were counted.
The peptide was determined to have immunogenicity when the number of spots of the tested peptide/the number of spots of an unrelated peptide>2; that is, if the number of spots caused by the tested peptide is more than twice than that of an unrelated peptide, the tested peptide is determined to have immunogenicity.

Sequence | Conclusion (immunogenicity)
FLVDGFWSI | immunogenic
FLVDGFWSL | immunogenic
FLVDGFWSV | immunogenic
FMVDGFWSL | immunogenic
FMVDGFWSV | immunogenic

same assay, conditions: T cells activated by listed peptide + T2 loaded with wild-type peptide FMVDGSWSI, 20 h

Sequence | Number of spots in the wild-type peptide group
FLVDGFWSI | 28
FLVDGFWSL | 30
FLVDGFWSV | 31
FMVDGFWSL | 37
FMVDGFWSV | 41

biological target: T1, HLA-A0201 (Homo sapiens, UniProt P04439, D140Y/D185E/D98H/E176V/E277Q/G131W/G231S/I119V/I121R/I166T/I218V/L300P/L318F/N151K/N90K/P208A/P217A/Q86G/Q94H/R138H/R169H/T345S); experiment: Affinity verification of the peptides to T2 cells (flow cytometry, FITC anti-HLA-A0201); assay type: cell-based; settings: added peptide 100 μM, FI>1.5 high affinity for HLA-A0201, listed as wild-type peptide
T1 construct: T2 cells (a lymphocyte, tumor cell line, expressing HLA-A0201); host or cells: T2 cells (TAP-deficient T/B lymphocyte hybridoma, HLA-A2 positive)
Method: 10 μg/ml of each peptide as described above was added, and human β2 microglobulin (at a final concentration of 3 μg/ml) was added and cultured overnight in an incubator (37° C., 5% CO2). Two replicate wells were set up for each group.
Cells were collected by centrifugation of the cell culture at 200 g for 5 minutes. The collected cells were washed twice with PBS, and then directly incubated with FITC-conjugated anti-HLA-A0201 monoclonal antibody at 4° C. for 30 minutes. The mean fluorescence intensity (MFI) was then detected and analyzed by flow cytometer (BD FACSJazz™) and its software. The fluorescence index (FI) was calculated by using the following formula: FI=[MFIsample−MFIbackground]/MFIbackground;

Sequence | FI (fluorescence index)
FMVDGSWSI [wild-type COL14A1 peptide used as comparator] | greater than 1.5

test system: T2 cells; experiment: LDH release assay, killing of peptide-loaded T2 target cells by CD8+ T cells; assay type: cell-based, human; settings: effector-to-target ratio (1:1); T2 loaded with wild-type FMVDGSWSI; 4 h
Method: The cells cultured in Example 3 were co-cultured with T2 cells loaded with the mutant peptides of the present invention or the wild-type peptide or without a peptide. A maximum release well, a volume correction well, a medium control well, a spontaneous release well and control wells for example at different effector-to-target ratios (ratios of T cells to T2 cells) were set in this experiment. Three replicate wells were set for each group. After 4 h, 50 μl of the co-culture supernatant was taken out and added to 50 μl of LDH substrate mixture to catalyze the reaction of LDH substrate. Finally, the plates were read at a wavelength of 490 nm, with a reference wavelength of 680 nm, and the killing activity against target cells T2 was calculated based on the control wells.

Sequence | killing activity against target cells T2 [%]
FLVDGFWSI | 2.65
FLVDGFWSL | 3.13
FLVDGFWSV | 3.26
FMVDGFWSL | 3.12
FMVDGFWSV | 3.37

same assay, conditions: effector-to-target ratio (10:1); T2 loaded with wild-type FMVDGSWSI; 4 h

Sequence | killing activity against target cells T2 [%]
FLVDGFWSI | 5.53
FLVDGFWSL | 6.33
FLVDGFWSV | 6.01
FMVDGFWSL | 4.91
FMVDGFWSV | 5.63

test system: CD8+ T cells; experiment: ELISPOTs detection of IFN-gamma secretion by peptide-specific CD8+ T cells; assay type: cell-based, human; settings: ratio of spot numbers; >2 immunogenic

Sequence | Fold (tested/wild-type)
FLVDGFWSI | 11.21
FLVDGFWSL | 10.26
FLVDGFWSV | 9.71
FMVDGFWSL | 8.86
FMVDGFWSV | 7.87
